The results in this text go back to patent US9068977B2, “Non-linear rotation rates of remotely driven particles and uses thereof” (THE REGENTS OF THE UNIVERSITY OF MICHIGAN, priority 2007, dated 2015).

In experiment [1] the test system is E. coli K-12 bacteria. The experiment in a line: Effect of antibiotic on bacterial growth, monitored by nonlinear rotation of magnetic particles. It is filed as cell-based. The conditions noted are these: 5% w/v Ampicillin antibiotic solution; cluster of 40 μm magnetic particles attached to small colony; Luria Broth (Miller) Growth Media; FIG. 9 bottom curve. From the text: The top curve is for several particles attached to a small colony of E. coli K-12 bacteria in Luria Broth (Miller) Growth Media. The rotational period increases over time, indicating bacterial grow. […] In certain configurations, especially when particles are at an interface, such as an air-liquid interface, the nonlinear rotation may occur in a plane perpendicular to the plane of the external driving magnetic field. This type of nonlinear rotation occurred in the above exemplary measurement.

Experiment [2] concerns E. coli. The experiment in a line: Growth of bacteria attached to a magnetic microsphere, monitored by nonlinear rotation period. It is filed as cell-based. The following applies: bacteria exposed to isopropyl alcohol (70%) for 15 minutes; control, FIG. 4d circles; growth media alone gave 75% increase over 25 min. From the text: Rotation rates were observed under fluorescent, reflection, and bright-field microscopy. FIG. 4(a) was obtained by measuring the average rotation rate of a magnetic microsphere (with an attached E. coli) for increasing magnetic driving frequencies. The critical frequency, where the magnetic particle goes from synchronous with driving field to asynchronous (nonlinear), occurs abruptly at 1.27 Hz. Measurements for (b), (c), and (d) were then made in this nonlinear regime. Bacteria attached to magnetic microspheres were optically detected by fluorescence of DsRed fluorescent protein transformed bacteria.
The magnetic microspheres with one bacterium attached rotated 33.8 times slower than the blank microspheres. […] There was an incremental 75% increase in rotation period over 25 min.

In the case of `CC1(C)S[C@@H]2[C@H](NC(=O)[C@H](N)c3ccccc3)C(=O)N2[C@H]1C(=O)O` [Ampicillin], the “normalized rotational period over time (indicator of bacterial growth)” value in experiment [1] is “decreases or stays constant over time”.
Regarding `CC(C)O` [isopropyl alcohol], the “change in normalized rotation period (growth of attached bacteria)” value in experiment [2] was “an increase just within the limits of the error bars”.
